For 14 compounds, IC50 results are on record in patent publication US20240116985A1, “STAPLED PEPTIDES AND METHODS THEREOF” (priority 2020, published 2024).

This assay concerns the target T1, full-length beta-Catenin (Uniprot ID P35222) (Homo sapiens, UniProt P35222).
T1 construct: 10 nM full-length beta-Catenin (Uniprot ID P35222)
T1 sequence (P35222 1-781): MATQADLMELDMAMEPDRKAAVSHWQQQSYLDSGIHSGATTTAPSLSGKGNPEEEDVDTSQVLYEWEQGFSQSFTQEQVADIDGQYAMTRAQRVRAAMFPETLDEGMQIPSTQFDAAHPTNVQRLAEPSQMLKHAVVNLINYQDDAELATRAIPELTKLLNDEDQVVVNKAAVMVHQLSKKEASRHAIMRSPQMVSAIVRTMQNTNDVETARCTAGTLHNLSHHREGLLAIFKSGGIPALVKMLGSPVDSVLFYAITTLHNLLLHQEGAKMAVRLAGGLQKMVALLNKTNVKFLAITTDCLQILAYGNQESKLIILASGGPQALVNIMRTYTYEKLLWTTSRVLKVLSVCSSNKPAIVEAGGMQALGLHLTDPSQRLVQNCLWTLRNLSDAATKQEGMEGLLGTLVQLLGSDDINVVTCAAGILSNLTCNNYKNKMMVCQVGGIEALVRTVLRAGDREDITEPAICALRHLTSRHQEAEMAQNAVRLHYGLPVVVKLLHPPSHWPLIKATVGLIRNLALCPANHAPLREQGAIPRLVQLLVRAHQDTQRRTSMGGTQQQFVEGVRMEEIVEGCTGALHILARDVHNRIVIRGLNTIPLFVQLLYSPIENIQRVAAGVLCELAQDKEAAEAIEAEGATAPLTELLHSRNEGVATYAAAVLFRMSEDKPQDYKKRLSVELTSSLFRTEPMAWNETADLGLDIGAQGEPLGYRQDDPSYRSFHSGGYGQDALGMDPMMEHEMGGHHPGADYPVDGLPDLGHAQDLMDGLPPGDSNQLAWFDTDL
Nature of the assay: Fluorescence polarization IC50 (beta-catenin / 5FAM-TCF4 10-53 competition). The class given is binding. Conditions: fluorescence polarization; read-out: beta-Catenin FP IC50. A general note: Polarisation of emitted light reports the rotation of a fluorescent probe.
The term IC50 denotes the concentration at which inhibition is half-maximal. As for `CC(=O)N1CCC[C@]12CC=CCCCC1(CCCC=CCCCOC(=O)N3CC[C@@](C(=O)N[C@@H](Cc4ccccc4)C(=O)N[C@@H](Cc4csc5ccccc45)C(=O)N[C@@H](CCC(N)=O)C(N)=O)(C3)NC(=O)[C@H](Cc3c[nH]c4ccccc34)NC(=O)[C@H](Cc3ccccc3)NC(=O)[C@H](C)NC(=O)[C@H](CCCCNC(C)C)NC(=O)[C@H]([C@@H](C)O)NC(=O)[C@H](CC(=O)O)NC1=O)NC(=O)[C@H](CC(C)(C)C)NC(=O)[C@H](CC(N)=O)NC2=O` (stereo partly drawn) [I-1600, Ac-PL3-Asn-Npg-B5-Asp-Thr-iPrLys-Ala-Phe-Trp-PyrS2-Phe-BztA-Gln-NH2], the IC50 amounted to 4290 nM.
Regarding `CC(=O)N1CCC[C@]12CC=CCCCC1(CCCC=CCCCOC(=O)N3CC[C@@](C(=O)N[C@@H](Cc4ccccc4)C(=O)N[C@@H](Cc4csc5ccccc45)C(=O)N[C@@H](CCC(N)=O)C(N)=O)(C3)NC(=O)[C@H](CO)NC(=O)[C@H](Cc3ccccc3)NC(=O)[C@H](C)NC(=O)[C@H](CCCCNC(C)C)NC(=O)[C@H]([C@@H](C)O)NC(=O)[C@H](CC(=O)O)NC1=O)NC(=O)[C@H](CC(C)(C)C)NC(=O)[C@H](CC(N)=O)NC2=O` (stereo partly drawn) [I-1601, Ac-PL3-Asn-Npg-B5-Asp-Thr-iPrLys-Ala-Phe-Ser-PyrS2-Phe-BztA-Gln-NH2], the IC50 turned out to be 2020 nM.
For `CC(=O)N1CCC[C@]12CCCCCCC1(CCCCCCCCOC(=O)N3CC[C@@](C(=O)N[C@@H](Cc4ccccc4C(F)(F)F)C(=O)N[C@@H](Cc4csc5ccccc45)C(=O)N[C@@H](CCC(N)=O)C(N)=O)(C3)NC(=O)[C@H](CC(C)C)NC(=O)[C@H](Cc3ccccc3)NC(=O)[C@H](C)NC(=O)[C@H](C)NC(=O)[C@H](Cc3cccc(C(=O)O)c3)NC(=O)[C@H](CC(=O)O)NC1=O)NC(=O)[C@H](CC(C)(C)C)NC(=O)[C@H](CC(=O)O)NC2=O` (stereo partly drawn) [I-1604, Ac-PL3-Asp-Npg-B5-Asp-3COOHF-Ala-Ala-Phe-Leu-PyrS2-2F3MeF-BztA-Gln-NH2] the value was 123 nM.
Turning to `CC(=O)N1CCC[C@]12CCCCCCC1(CCCCCCCCOC(=O)N3CC[C@@](C(=O)N[C@@H](Cc4ccsc4)C(=O)N[C@@H](Cc4csc5ccccc45)C(=O)N[C@@H](CCC(N)=O)C(N)=O)(C3)NC(=O)[C@H](CC(C)C)NC(=O)[C@H](Cc3ccccc3)NC(=O)[C@H](C)NC(=O)[C@H](C)NC(=O)[C@H](CN(CC(=O)O)CC(F)(F)F)NC(=O)[C@H](CC(=O)O)NC1=O)NC(=O)[C@H](CC(C)(C)C)NC(=O)[C@H](CC(=O)O)NC2=O` (stereo partly drawn) [I-1605, Ac-PL3-Asp-Npg-B5-Asp-TfeGA-Ala-Ala-Phe-Leu-PyrS2-3Thi-BztA-Gln-NH2], the IC50 stood at 214 nM.
As for `CC(=O)N1CCC[C@]12CCCCCCC1(CCCCCCCCOC(=O)N3CC[C@@](C(=O)N[C@@H](Cc4ccccc4Cl)C(=O)N[C@@H](Cc4csc5ccccc45)C(=O)N[C@@H](CCC(N)=O)C(N)=O)(C3)NC(=O)[C@H]([C@@H](C)O)NC(=O)[C@H](Cc3ccccc3)NC(=O)[C@H](C)NC(=O)[C@H](C)NC(=O)[C@H](CN(CC(=O)O)CC(F)(F)F)NC(=O)[C@H](CC(=O)O)NC1=O)NC(=O)[C@H](CC(C)(C)C)NC(=O)[C@H](CC(=O)O)NC2=O` (stereo partly drawn) [I-1606, Ac-PL3-Asp-Npg-B5-Asp-TfeGA-Ala-Ala-Phe-Thr-PyrS2-2C1F-BztA-Gln-NH2], the IC50 worked out at 107 nM.
The result for `CC(=O)N1CCC[C@]12CC=CCCCC1(CCCC=CCCCCCC[C@@](C)(C(=O)N[C@@H](Cc3ccsc3)C(=O)N[C@@H](Cc3csc4ccccc34)C(=O)N[C@@H](CCC(N)=O)C(N)=O)NC(=O)[C@H](CC(N)=O)NC(=O)[C@H](Cc3ccccc3)NC(=O)[C@H](C)NC(=O)[C@H](C)NC(=O)[C@H]([C@@H](C)O)NC(=O)[C@H](CC(N)=O)NC1=O)NC(=O)[C@H](CC(C)(C)C)NC(=O)[C@H](CC(=O)O)NC2=O` (stereo partly drawn) [I-1617, Ac-PL3-Asp-Npg-B5-Asn-Thr-Ala-Ala-Phe-Asn-S8-3Thi-BztA-Gln-NH2] reads 759 nM; that for `CCCC[C@@H]1NC(=O)[C@H](Cc2ccccc2)NC(=O)[C@H](C)NC(=O)[C@H](C)NC(=O)[C@H]([C@@H](C)O)NC(=O)[C@H](CC(N)=O)NC(=O)C2(CCCC=CCCCOC(=O)N3CC[C@@](C(=O)N[C@@H](Cc4ccsc4)C(=O)N[C@@H](Cc4csc5ccccc45)C(=O)N[C@@H](CCC(N)=O)C(N)=O)(C3)NC1=O)CCCC=CC[C@]1(CCCN1C(C)=O)C(=O)N[C@@H](CC(=O)O)C(=O)N[C@@H](CC(C)(C)C)C(=O)N2` (stereo partly drawn) [I-1619, Ac-PL3-Asp-Npg-B5-Asn-Thr-Ala-Ala-Phe-nLeu-PyrS2-3Thi-BztA-Gln-NH2], 1290 nM; that for `CC(=O)N1CCC[C@]12CC=CCCCC1(CCCC=CCCCOC(=O)N3CC[C@@](C(=O)N[C@@H](Cc4ccsc4)C(=O)N[C@@H](Cc4csc5ccccc45)C(=O)N[C@@H](CCC(N)=O)C(N)=O)(C3)NC(=O)[C@H](CCC(C)C)NC(=O)[C@H](Cc3ccccc3)NC(=O)[C@H](C)NC(=O)[C@H](C)NC(=O)[C@H]([C@@H](C)O)NC(=O)[C@H](CC(N)=O)NC1=O)NC(=O)[C@H](CC(C)(C)C)NC(=O)[C@H](CC(=O)O)NC2=O` (stereo partly drawn) [I-1620, Ac-PL3-Asp-Npg-B5-Asn-Thr-Ala-Ala-Phe-hLeu-PyrS2-3Thi-BztA-Gln-NH2], 2060 nM.
For `CC(=O)N1CCC[C@]12CC=CCCCC1(CCCC=CCCCOC(=O)N3CC[C@@](C(=O)N[C@@H](Cc4ccsc4)C(=O)N[C@@H](Cc4csc5ccccc45)C(=O)N[C@@H](CCC(N)=O)C(N)=O)(C3)NC(=O)[C@H]([C@@H](C)O)NC(=O)[C@H](Cc3ccccc3)NC(=O)[C@H](C)NC(=O)[C@H](C)NC(=O)[C@H]([C@@H](C)O)NC(=O)[C@H](CC(N)=O)NC1=O)NC(=O)[C@H](CC(C)(C)C)NC(=O)[C@H](CC(=O)O)NC2=O` (stereo partly drawn) [I-1621, Ac-PL3-Asp-Npg-B5-Asn-Thr-Ala-Ala-Phe-Thr-PyrS2-3Thi-BztA-Gln-NH2] the value was 266 nM; for `CCC(C)N(CC(=O)O)C[C@@H]1NC(=O)[C@H](CC(=O)O)NC(=O)C2(CCCC=CCCCOC(=O)N3CC[C@@](C(=O)N[C@@H](Cc4ccccc4Cl)C(=O)N[C@@H](Cc4csc5ccccc45)C(=O)N[C@@H](CCC(N)=O)C(N)=O)(C3)NC(=O)[C@H](CC(N)=O)NC(=O)[C@H](Cc3ccccc3)NC(=O)[C@H](C)NC(=O)[C@H](C)NC1=O)CCCC=CC[C@]1(CCCN1C(C)=O)C(=O)N[C@@H](CC(=O)O)C(=O)N[C@@H](CC(C)(C)C)C(=O)N2` (stereo partly drawn) [I-1623, Ac-PL3-Asp-Npg-B5-Asp-[sBu]GA-Ala-Ala-Phe-Asn-PyrS2-2C1F-BztA-Gln-NH2], 30 nM.
For `CC(=O)N1CCC[C@]12CC=CCCCC1(CCCC=CCCCCCC[C@@](C)(C(=O)N[C@@H](Cc3ccsc3)C(=O)N[C@@H](Cc3csc4ccccc34)C(=O)N[C@@H](CCC(N)=O)C(N)=O)NC(=O)[C@H](CC(N)=O)NC(=O)[C@H](Cc3ccccc3)NC(=O)[C@H](C)NC(=O)[C@H](C)NC(=O)[C@H](CN(CC(=O)O)Cc3c(F)c(F)c(F)c(F)c3F)NC(=O)[C@H](CC(=O)O)NC1=O)NC(=O)[C@H](CC(C)(C)C)NC(=O)[C@H](CC(=O)O)NC2=O` (stereo partly drawn) [I-1624, Ac-PL3-Asp-Npg-B5-Asp-[Pfbn]GA-Ala-Ala-Phe-Asn-S8-3Thi-BztA-Gln-NH2] the value was 47.5 nM; for `CCC(C)N(CC(=O)O)C[C@@H]1NC(=O)[C@H](CC(=O)O)NC(=O)C2(CCCC=CCCCCCC[C@@](C)(C(=O)N[C@@H](Cc3ccsc3)C(=O)N[C@@H](Cc3csc4ccccc34)C(=O)N[C@@H](CCC(N)=O)C(N)=O)NC(=O)[C@H](CC(N)=O)NC(=O)[C@H](Cc3ccccc3)NC(=O)[C@H](C)NC(=O)[C@H](C)NC1=O)CCCC=CC[C@]1(CCCN1C(C)=O)C(=O)N[C@@H](CC(=O)O)C(=O)N[C@@H](CC(C)(C)C)C(=O)N2` (stereo partly drawn) [I-1626, Ac-PL3-Asp-Npg-B5-Asp-[sBu]GA-Ala-Ala-Phe-Asn-S8-3Thi-BztA-Gln-NH2], 721 nM; for `CC(=O)N1CCC[C@]12CC=CCCCC1(CCCC=CCCCOC(=O)N3CC[C@@](C(=O)N[C@@H](Cc4ccsc4)C(=O)N[C@@H](Cc4csc5ccccc45)C(=O)N[C@@H](CCC(N)=O)C(N)=O)(C3)NC(=O)[C@H](CC(N)=O)NC(=O)[C@H](Cc3ccccc3)NC(=O)[C@H](C)NC(=O)[C@H](C)NC(=O)[C@H](CN(CCC(F)(F)F)CC(=O)O)NC(=O)[C@H](CC(=O)O)NC1=O)NC(=O)[C@H](CC(C)(C)C)NC(=O)[C@H](CC(=O)O)NC2=O` (stereo partly drawn) [I-1640, Ac-PL3-Asp-Npg-B5-Asp-[Tfp]GA-Ala-Ala-Phe-Asn-PyrS2-3Thi-BztA-Gln-NH2], 8 nM.
`CC(=O)N1CCC[C@]12CC=CCCCC1(CCCC=CCCCOC(=O)N3CC[C@@](C(=O)N[C@@H](Cc4ccsc4)C(=O)N[C@@H](Cc4csc5ccccc45)C(=O)N[C@@H](CCC(N)=O)C(=O)NC4CCCCC4)(C3)NC(=O)[C@H](CC(N)=O)NC(=O)[C@H](Cc3ccccc3)NC(=O)[C@H](C)NC(=O)[C@H](C)NC(=O)[C@H](CN(CC(=O)O)CC(F)(F)F)NC(=O)[C@H](CC(=O)O)NC1=O)NC(=O)[C@H](CC(C)(C)C)NC(=O)[C@H](CC(=O)O)NC2=O` (stereo partly drawn) [I-1642, Ac-PL3-Asp-Npg-B5-Asp-TfeGA-Ala-Ala-Phe-Asn-PyrS2-3Thi-BztA-Gln-NHCyHe]: the IC50 was 36 nM.
